{
  "source": "ChEMBL document CHEMBL1125940",
  "about": "(Bioorg Med Chem Lett, 1991)",
  "note": "Positions of bridges follow the written chain, without caps; N, C: chain ends. Residues, ends and D or L forms follow the SMILES beside them.",
  "data": [
    {"target": "T1, Endothelin-1 receptor (Rattus norvegicus, UniProt P26684)", "T1 sequence (P26684 whole entry)": "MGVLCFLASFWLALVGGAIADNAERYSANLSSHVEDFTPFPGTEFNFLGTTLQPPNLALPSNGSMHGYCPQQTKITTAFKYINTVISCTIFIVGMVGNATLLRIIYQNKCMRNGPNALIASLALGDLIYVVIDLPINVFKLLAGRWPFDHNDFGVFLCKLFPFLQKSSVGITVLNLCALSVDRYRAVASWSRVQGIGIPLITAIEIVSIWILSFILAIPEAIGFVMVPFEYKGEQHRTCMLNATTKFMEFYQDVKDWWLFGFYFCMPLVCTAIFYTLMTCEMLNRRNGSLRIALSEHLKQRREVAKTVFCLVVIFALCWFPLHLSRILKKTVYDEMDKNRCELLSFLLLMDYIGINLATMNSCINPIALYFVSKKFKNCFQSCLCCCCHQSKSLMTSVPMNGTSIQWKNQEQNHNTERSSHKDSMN", "experiment": "Binding affinity towards Endothelin A receptor in A10 rat thoracic aorta smooth muscle cells using [125I]ET1 as radioligand", "units": {"Kd": "nM"}, "values": [
      {"smiles": "CC[C@H](C)[C@H](NC(=O)[C@H](CC(=O)O)NC(=O)[C@H](CC(C)C)NC(=O)[C@H](Cc1cnc[nH]1)NC(=O)[C@@H]1CSSC[C@H](N)C(=O)N[C@@H](CO)C(=O)N[C@H]2CSSC[C@H](NC(=O)[C@H](CCC(=O)O)NC(=O)[C@H](CCCCN)NC(=O)[C@H](CC(=O)O)NC(=O)[C@H](C)NC(=O)[C@H](C)NC(=O)[C@H](C)NC(=O)[C@H](C)NC2=O)C(=O)N[C@@H](C(C)C)C(=O)N[C@@H](Cc2ccc(O)cc2)C(=O)N[C@@H](Cc2ccccc2)C(=O)N1)C(=O)N[C@H](C(=O)N[C@@H](Cc1c[nH]c2ccccc12)C(=O)O)[C@@H](C)CC", "note": "(H-CSCAAAADKECVYFCHLDIIW-OH; disulfide 1-15, 3-11)", "Kd": 130},
      {"smiles": "CC[C@H](C)[C@H](NC(=O)[C@H](CC(=O)O)NC(=O)[C@H](CC(C)C)NC(=O)[C@H](Cc1c[nH]cn1)NC(=O)[C@@H]1CSSC[C@H](N)C(=O)N[C@@H](CO)C(=O)N[C@H]2CSSC[C@H](NC(=O)[C@H](CCC(=O)O)NC(=O)[C@H](CCCCN)NC(=O)[C@H](C)NC(=O)[C@H](CCSC)NC(=O)[C@H](CC(C)C)NC(=O)[C@H](CO)NC(=O)[C@H](CO)NC2=O)C(=O)N[C@@H](C(C)C)C(=O)N[C@@H](Cc2ccc(O)cc2)C(=O)N[C@@H](Cc2ccccc2)C(=O)N1)C(=O)N[C@H](C(=O)N[C@@H](Cc1c[nH]c2ccccc12)C(=O)O)[C@@H](C)CC", "note": "(H-CSCSSLMAKECVYFCHLDIIW-OH; disulfide 1-15, 3-11) [listing 1 of 2 here]", "Kd": 3070},
      {"smiles": "CC[C@H](C)[C@H](NC(=O)[C@H](CC(=O)O)NC(=O)[C@H](CC(C)C)NC(=O)[C@H](Cc1cnc[nH]1)NC(=O)[C@@H]1CSSC[C@H](N)C(=O)N[C@@H](CO)C(=O)N[C@H]2CSSC[C@H](NC(=O)[C@H](C)NC(=O)[C@H](CCCCN)NC(=O)[C@H](CC(=O)O)NC(=O)[C@H](CCSC)NC(=O)[C@H](CC(C)C)NC(=O)[C@H](CO)NC(=O)[C@H](CO)NC2=O)C(=O)N[C@@H](C(C)C)C(=O)N[C@@H](Cc2ccc(O)cc2)C(=O)N[C@@H](Cc2ccccc2)C(=O)N1)C(=O)N[C@H](C(=O)N[C@@H](Cc1c[nH]c2ccccc12)C(=O)O)[C@@H](C)CC", "note": "(H-CSCSSLMDKACVYFCHLDIIW-OH; disulfide 1-15, 3-11)", "Kd": 188},
      {"smiles": "CC[C@H](C)[C@H](NC(=O)[C@H](CC(=O)O)NC(=O)[C@H](CC(C)C)NC(=O)[C@H](Cc1c[nH]cn1)NC(=O)[C@@H]1CSSC[C@H](N)C(=O)N[C@@H](CO)C(=O)N[C@H]2CSSC[C@H](NC(=O)[C@H](CCC(=O)O)NC(=O)[C@H](CCCCN)NC(=O)[C@H](CC(=O)O)NC(=O)[C@H](CCSC)NC(=O)[C@H](CC(C)C)NC(=O)[C@H](CO)NC(=O)[C@H](CO)NC2=O)C(=O)N[C@@H](C(C)C)C(=O)N[C@@H](Cc2ccc(O)cc2)C(=O)N[C@@H](C)C(=O)N1)C(=O)N[C@H](C(=O)N[C@@H](Cc1c[nH]c2ccccc12)C(=O)O)[C@@H](C)CC", "note": "(H-CSCSSLMDKECVYACHLDIIW-OH; disulfide 1-15, 3-11) [listing 1 of 2 here]", "Kd": 646}
    ]},
    {"species_on_record": "Oryctolagus cuniculus", "experiment": "Percent of endothelin-1 induced contraction of carotid arteries isolated from New Zealand white rabbits, tested at 1 uM concentration of compound", "type": "functional", "units": {"Contraction": "%"}, "values": [
      {"smiles": "CC[C@H](C)[C@H](NC(=O)[C@H](CC(=O)O)NC(=O)[C@H](CC(C)C)NC(=O)[C@H](Cc1c[nH]cn1)NC(=O)[C@@H]1CSSC[C@H](NC(C)=O)C(=O)N[C@@H](CO)C(=O)N[C@H]2CSSC[C@H](NC(=O)[C@H](CCC(=O)O)NC(=O)[C@H](CCCCN)NC(=O)[C@H](CC(=O)O)NC(=O)[C@H](CCSC)NC(=O)[C@H](CC(C)C)NC(=O)[C@H](CO)NC(=O)[C@H](CO)NC2=O)C(=O)N[C@@H](C(C)C)C(=O)N[C@@H](Cc2ccc(O)cc2)C(=O)N[C@@H](Cc2ccccc2)C(=O)N1)C(=O)N[C@H](C(=O)N[C@@H](Cc1c[nH]c2ccccc12)C(=O)O)[C@@H](C)CC", "Contraction": 36},
      {"smiles": "CC[C@H](C)[C@H](NC(=O)[C@H](CC(=O)O)NC(=O)[C@H](CC(C)C)NC(=O)[C@H](Cc1c[nH]cn1)NC(=O)[C@@H]1CSSC[C@H](N)C(=O)N[C@@H](CO)C(=O)N[C@H]2CSSC[C@H](NC(=O)[C@H](CCC(=O)O)NC(=O)[C@H](CCCCN)NC(=O)[C@H](C)NC(=O)[C@H](CCSC)NC(=O)[C@H](CC(C)C)NC(=O)[C@H](CO)NC(=O)[C@H](CO)NC2=O)C(=O)N[C@@H](C(C)C)C(=O)N[C@@H](Cc2ccc(O)cc2)C(=O)N[C@@H](Cc2ccccc2)C(=O)N1)C(=O)N[C@H](C(=O)N[C@@H](Cc1c[nH]c2ccccc12)C(=O)O)[C@@H](C)CC", "note": "(H-CSCSSLMAKECVYFCHLDIIW-OH; disulfide 1-15, 3-11) [listing 2 of 2 here]", "Contraction": 60},
      {"smiles": "CC[C@H](C)[C@H](NC(=O)[C@H](CC(=O)O)NC(=O)[C@H](CC(C)C)NC(=O)[C@H](Cc1c[nH]cn1)NC(=O)[C@@H]1CSSC[C@H](N)C(=O)N[C@@H](CO)C(=O)N[C@H]2CSSC[C@H](NC(=O)[C@H](C)NC(=O)[C@H](CCCCN)NC(=O)[C@H](CC(=O)O)NC(=O)[C@H](CCSC)NC(=O)[C@H](CC(C)C)NC(=O)[C@H](CO)NC(=O)[C@H](CO)NC2=O)C(=O)N[C@@H](C(C)C)C(=O)N[C@@H](Cc2ccc(O)cc2)C(=O)N[C@@H](Cc2ccccc2)C(=O)N1)C(=O)N[C@H](C(=O)N[C@@H](Cc1c[nH]c2ccccc12)C(=O)O)[C@@H](C)CC", "note": "(H-CSCSSLMDKACVYFCHLDIIW-OH; disulfide 1-15, 3-11)", "Contraction": 7},
      {"smiles": "CC[C@H](C)[C@H](NC(=O)[C@H](CC(=O)O)NC(=O)[C@H](CC(C)C)NC(=O)[C@H](Cc1c[nH]cn1)NC(=O)[C@@H]1CSSC[C@H](N)C(=O)N[C@@H](CO)C(=O)N[C@H]2CSSC[C@H](NC(=O)[C@H](CCC(=O)O)NC(=O)[C@H](CCCCN)NC(=O)[C@H](CC(=O)O)NC(=O)[C@H](CCSC)NC(=O)[C@H](CC(C)C)NC(=O)[C@H](CO)NC(=O)[C@H](CO)NC2=O)C(=O)N[C@@H](C(C)C)C(=O)N[C@@H](Cc2ccc(O)cc2)C(=O)N[C@@H](C)C(=O)N1)C(=O)N[C@H](C(=O)N[C@@H](Cc1c[nH]c2ccccc12)C(=O)O)[C@@H](C)CC", "note": "(H-CSCSSLMDKECVYACHLDIIW-OH; disulfide 1-15, 3-11) [listing 2 of 2 here]", "Contraction": 6},
      {"smiles": "CC[C@H](C)[C@H](NC(=O)[C@H](CC(=O)O)NC(=O)[C@H](C)NC(=O)[C@H](Cc1c[nH]cn1)NC(=O)[C@@H]1CSSC[C@H](N)C(=O)N[C@@H](CO)C(=O)N[C@H]2CSSC[C@H](NC(=O)[C@H](CCC(=O)O)NC(=O)[C@H](CCCCN)NC(=O)[C@H](CC(=O)O)NC(=O)[C@H](CCSC)NC(=O)[C@H](CC(C)C)NC(=O)[C@H](CO)NC(=O)[C@H](CO)NC2=O)C(=O)N[C@@H](C(C)C)C(=O)N[C@@H](Cc2ccc(O)cc2)C(=O)N[C@@H](Cc2ccccc2)C(=O)N1)C(=O)N[C@H](C(=O)N[C@@H](Cc1c[nH]c2ccccc12)C(=O)O)[C@@H](C)CC", "note": "(H-CSCSSLMDKECVYFCHADIIW-OH; disulfide 1-15, 3-11)", "Contraction": 0},
      {"smiles": "CC[C@H](C)[C@H](NC(=O)[C@H](C)NC(=O)[C@H](CC(C)C)NC(=O)[C@H](Cc1c[nH]cn1)NC(=O)[C@@H]1CSSC[C@H](N)C(=O)N[C@@H](CO)C(=O)N[C@H]2CSSC[C@H](NC(=O)[C@H](CCC(=O)O)NC(=O)[C@H](CCCCN)NC(=O)[C@H](CC(=O)O)NC(=O)[C@H](CCSC)NC(=O)[C@H](CC(C)C)NC(=O)[C@H](CO)NC(=O)[C@H](CO)NC2=O)C(=O)N[C@@H](C(C)C)C(=O)N[C@@H](Cc2ccc(O)cc2)C(=O)N[C@@H](Cc2ccccc2)C(=O)N1)C(=O)N[C@H](C(=O)N[C@@H](Cc1c[nH]c2ccccc12)C(=O)O)[C@@H](C)CC", "note": "(H-CSCSSLMDKECVYFCHLAIIW-OH; disulfide 1-15, 3-11)", "Contraction": 0},
      {"smiles": "CSCC[C@@H]1NC(=O)[C@H](CC(C)C)NC(=O)[C@H](CO)NC(=O)[C@H](CO)NC(=O)[C@@H]2CSSC[C@H](NC(=O)[C@H](CCC(=O)O)NC(=O)[C@H](CCCCN)NC(=O)[C@H](CC(=O)O)NC1=O)C(=O)N[C@@H](C(C)C)C(=O)N[C@@H](Cc1ccc(O)cc1)C(=O)N[C@@H](Cc1ccccc1)C(=O)N[C@H](C(=O)N[C@@H](Cc1c[nH]cn1)C(=O)N[C@@H](CC(C)C)C(=O)N[C@@H](CC(=O)O)C(=O)N[C@@H](C)C(=O)N[C@@H](C)C(=O)N[C@@H](Cc1c[nH]c3ccccc13)C(=O)O)CSSC[C@H](N)C(=O)N[C@@H](CO)C(=O)N2", "note": "(H-CSCSSLMDKECVYFCHLDAAW-OH; disulfide 1-15, 3-11)", "Contraction": 50},
      {"smiles": "CC[C@H](C)[C@H](NC(=O)[C@H](CC(=O)O)NC(=O)[C@H](CC(C)C)NC(=O)[C@H](Cc1c[nH]cn1)NC(=O)[C@@H]1CSSC[C@H](N)C(=O)N[C@@H](CO)C(=O)N[C@H]2CSSC[C@H](NC(=O)[C@H](CCC(=O)O)NC(=O)[C@H](CCCCN)NC(=O)[C@H](CC(=O)O)NC(=O)[C@H](CCSC)NC(=O)[C@H](CC(C)C)NC(=O)[C@H](CO)NC(=O)[C@H](CO)NC2=O)C(=O)N[C@@H](C(C)C)C(=O)N[C@@H](Cc2ccc(O)cc2)C(=O)N[C@@H](Cc2ccccc2)C(=O)N1)C(=O)N[C@@H](C)C(=O)N[C@@H](Cc1c[nH]c2ccccc12)C(=O)O", "note": "(H-CSCSSLMDKECVYFCHLDIAW-OH; disulfide 1-15, 3-11)", "Contraction": 37},
      {"smiles": "CC[C@H](C)[C@H](NC(=O)[C@H](CC(=O)O)NC(=O)[C@H](CC(C)C)NC(=O)[C@H](Cc1c[nH]cn1)NC(=O)[C@@H]1CSSC[C@H](N)C(=O)N[C@@H](CO)C(=O)N[C@H]2CSSC[C@H](NC(=O)[C@H](CCC(=O)O)NC(=O)[C@H](CCCCN)NC(=O)[C@H](CC(=O)O)NC(=O)[C@H](CCSC)NC(=O)[C@H](CC(C)C)NC(=O)[C@H](CO)NC(=O)[C@H](CO)NC2=O)C(=O)N[C@@H](C(C)C)C(=O)N[C@@H](Cc2ccc(O)cc2)C(=O)N[C@@H](Cc2ccccc2)C(=O)N1)C(=O)N[C@H](C(=O)N[C@@H](C)C(=O)O)[C@@H](C)CC", "note": "(H-CSCSSLMDKECVYFCHLDIIA-OH; disulfide 1-15, 3-11)", "Contraction": 0}
    ]}
  ]
}
